Experimental data as given in ChEMBL document CHEMBL1156596, “Overcoming undesirable CYP1A2 inhibition of pyridylnaphthalene-type aldosterone synthase inhibitors: influence of heteroaryl derivatization on potency and selectivity” (J Med Chem, 2008).

Legend:
Homo sapiens = organism: Homo sapiens; experiment: Selectivity ratio of IC50 for human CYP11B1 to IC50 for human CYP11B2
[1] = molecular target: T1, Cytochrome P450 11B2, mitochondrial (Homo sapiens, UniProt P19099)
T1 sequence (P19099 whole entry): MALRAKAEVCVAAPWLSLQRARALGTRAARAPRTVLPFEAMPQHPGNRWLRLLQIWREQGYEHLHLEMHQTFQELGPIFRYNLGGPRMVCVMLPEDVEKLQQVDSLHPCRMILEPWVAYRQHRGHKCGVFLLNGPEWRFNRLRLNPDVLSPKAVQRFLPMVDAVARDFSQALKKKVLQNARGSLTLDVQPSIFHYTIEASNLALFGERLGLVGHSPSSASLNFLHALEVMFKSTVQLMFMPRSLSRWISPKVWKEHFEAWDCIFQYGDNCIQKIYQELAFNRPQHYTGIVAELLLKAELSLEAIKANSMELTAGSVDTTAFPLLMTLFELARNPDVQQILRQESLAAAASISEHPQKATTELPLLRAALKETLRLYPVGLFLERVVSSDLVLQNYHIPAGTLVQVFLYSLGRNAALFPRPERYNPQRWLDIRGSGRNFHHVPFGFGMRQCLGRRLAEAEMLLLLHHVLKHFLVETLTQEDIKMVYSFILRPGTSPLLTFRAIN

[2] = molecular target: T2, Cytochrome P450 11B1, mitochondrial (Homo sapiens, UniProt P15538)
T2 sequence (P15538 whole entry): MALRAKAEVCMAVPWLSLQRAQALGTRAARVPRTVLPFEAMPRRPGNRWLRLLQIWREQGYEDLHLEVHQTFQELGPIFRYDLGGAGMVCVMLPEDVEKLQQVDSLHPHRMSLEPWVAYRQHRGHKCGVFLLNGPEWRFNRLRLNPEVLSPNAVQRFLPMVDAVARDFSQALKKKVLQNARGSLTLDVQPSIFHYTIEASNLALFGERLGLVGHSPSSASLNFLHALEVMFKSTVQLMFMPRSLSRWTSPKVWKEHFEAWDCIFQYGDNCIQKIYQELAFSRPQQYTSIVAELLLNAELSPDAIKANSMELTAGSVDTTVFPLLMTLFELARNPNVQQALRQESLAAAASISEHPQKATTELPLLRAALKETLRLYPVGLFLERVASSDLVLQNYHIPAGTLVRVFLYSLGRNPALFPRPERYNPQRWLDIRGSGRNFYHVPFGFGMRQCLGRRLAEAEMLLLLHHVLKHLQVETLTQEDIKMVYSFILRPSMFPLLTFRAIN

CYP1A2 = molecular target: T3, CYP1A2 (Homo sapiens, UniProt P05177); experiment: Inhibition of human recombinant CYP1A2 expressed in insect microsomes at 2 uM; format: ADME, Microsome
T3 sequence (P05177 whole entry): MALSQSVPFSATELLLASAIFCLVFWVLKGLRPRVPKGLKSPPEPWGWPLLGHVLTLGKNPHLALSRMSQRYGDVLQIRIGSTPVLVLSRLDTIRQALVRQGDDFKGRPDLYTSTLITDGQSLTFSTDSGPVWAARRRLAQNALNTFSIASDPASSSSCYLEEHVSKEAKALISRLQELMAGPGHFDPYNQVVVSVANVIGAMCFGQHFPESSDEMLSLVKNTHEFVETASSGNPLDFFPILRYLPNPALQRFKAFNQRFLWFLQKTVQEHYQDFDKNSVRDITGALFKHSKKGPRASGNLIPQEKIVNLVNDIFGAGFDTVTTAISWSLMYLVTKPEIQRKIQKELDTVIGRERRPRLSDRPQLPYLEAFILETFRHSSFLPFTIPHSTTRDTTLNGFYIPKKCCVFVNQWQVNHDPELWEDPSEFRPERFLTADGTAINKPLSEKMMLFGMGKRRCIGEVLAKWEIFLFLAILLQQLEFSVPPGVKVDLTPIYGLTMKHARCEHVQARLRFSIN

CYP17 = molecular target: T4, CYP17 (Homo sapiens, UniProt P05093); experiment: Inhibition of human recombinant CYP17 expressed in Escherichia coli at 2 uM
T4 sequence (P05093 whole entry): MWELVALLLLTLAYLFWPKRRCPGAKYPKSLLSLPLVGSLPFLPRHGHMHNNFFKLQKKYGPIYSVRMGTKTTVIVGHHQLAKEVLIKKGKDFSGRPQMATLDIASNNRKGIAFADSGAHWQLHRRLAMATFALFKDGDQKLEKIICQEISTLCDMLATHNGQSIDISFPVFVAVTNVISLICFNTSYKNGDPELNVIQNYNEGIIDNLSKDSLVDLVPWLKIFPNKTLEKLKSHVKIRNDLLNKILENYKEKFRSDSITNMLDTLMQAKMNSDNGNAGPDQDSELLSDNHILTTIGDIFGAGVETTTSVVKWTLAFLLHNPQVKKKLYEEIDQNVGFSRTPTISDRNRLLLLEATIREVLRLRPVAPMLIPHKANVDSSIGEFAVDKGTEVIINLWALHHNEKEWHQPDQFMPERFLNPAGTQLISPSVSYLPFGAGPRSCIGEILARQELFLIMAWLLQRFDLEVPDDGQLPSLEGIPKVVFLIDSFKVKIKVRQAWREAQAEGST

CYP19 (aromatase) = molecular target: T5, CYP19 (aromatase) (Homo sapiens, UniProt P11511); experiment: Inhibition of human placental CYP19 at 500 nM
T5 sequence (P11511 whole entry): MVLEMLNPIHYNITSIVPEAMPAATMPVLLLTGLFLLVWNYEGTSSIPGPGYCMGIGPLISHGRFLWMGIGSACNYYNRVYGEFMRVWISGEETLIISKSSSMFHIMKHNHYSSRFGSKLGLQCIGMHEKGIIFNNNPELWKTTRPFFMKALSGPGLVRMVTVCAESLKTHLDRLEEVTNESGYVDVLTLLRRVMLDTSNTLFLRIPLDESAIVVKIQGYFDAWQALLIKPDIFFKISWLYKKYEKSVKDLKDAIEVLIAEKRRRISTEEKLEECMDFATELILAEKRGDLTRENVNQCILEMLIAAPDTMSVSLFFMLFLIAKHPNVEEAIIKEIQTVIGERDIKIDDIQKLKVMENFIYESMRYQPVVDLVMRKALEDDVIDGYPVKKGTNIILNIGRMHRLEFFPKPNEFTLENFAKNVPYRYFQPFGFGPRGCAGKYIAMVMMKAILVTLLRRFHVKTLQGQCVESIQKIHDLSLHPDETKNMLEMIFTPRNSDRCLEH

Cytochrome P450 2B6 = molecular target: T6, Cytochrome P450 2B6 (Homo sapiens, UniProt P20813); experiment: Inhibition of human recombinant CYP2B6 expressed in insect microsomes; format: ADME, Microsome
T6 sequence (P20813 whole entry): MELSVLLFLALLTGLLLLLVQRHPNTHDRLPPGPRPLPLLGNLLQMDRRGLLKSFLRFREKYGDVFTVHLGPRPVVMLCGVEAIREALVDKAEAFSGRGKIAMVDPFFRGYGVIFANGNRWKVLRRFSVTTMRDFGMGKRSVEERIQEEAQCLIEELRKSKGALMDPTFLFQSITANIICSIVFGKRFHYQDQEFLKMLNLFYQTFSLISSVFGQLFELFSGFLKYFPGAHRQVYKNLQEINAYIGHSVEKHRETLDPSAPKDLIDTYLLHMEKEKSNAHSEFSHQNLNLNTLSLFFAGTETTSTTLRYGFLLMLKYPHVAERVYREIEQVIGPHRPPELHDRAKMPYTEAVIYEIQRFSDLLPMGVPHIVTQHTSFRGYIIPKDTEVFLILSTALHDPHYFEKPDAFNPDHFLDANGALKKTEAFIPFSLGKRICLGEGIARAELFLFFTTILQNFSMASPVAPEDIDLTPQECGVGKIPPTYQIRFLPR

Cytochrome P450 2C9 = Cytochrome P450 2C9 (Homo sapiens, UniProt P11712); experiment: Inhibition of human recombinant CYP2C9 expressed in insect microsomes; format: ADME, Microsome
Cytochrome P450 2C19 = Cytochrome P450 2C19 (Homo sapiens, UniProt P33261); experiment: Inhibition of human recombinant CYP2C19 expressed in insect microsomes; format: ADME, Microsome
Cytochrome P450 2D6 = Cytochrome P450 2D6 (Homo sapiens, UniProt P10635); experiment: Inhibition of human recombinant CYP2D6 expressed in insect microsomes; format: ADME, Microsome
Cytochrome P450 3A4 = Cytochrome P450 3A4 (Homo sapiens, UniProt P08684); experiment: Inhibition of human recombinant CYP3A4 expressed in insect microsomes; format: ADME, Microsome
[3] = Cmax in Wistar rat at 5 mg/kg, po; format: ADME, organism-based; design: dose 5 mg/kg, route oral; conditions: in vivo
Cytochrome P450 1A2 = molecular target: T7, Cytochrome P450 1A2 (Homo sapiens, UniProt P05177)
T7 sequence (P05177 whole entry): T3 sequence (P05177 whole entry)

Cytochrome P450 2D6, sequence (P10635 whole entry): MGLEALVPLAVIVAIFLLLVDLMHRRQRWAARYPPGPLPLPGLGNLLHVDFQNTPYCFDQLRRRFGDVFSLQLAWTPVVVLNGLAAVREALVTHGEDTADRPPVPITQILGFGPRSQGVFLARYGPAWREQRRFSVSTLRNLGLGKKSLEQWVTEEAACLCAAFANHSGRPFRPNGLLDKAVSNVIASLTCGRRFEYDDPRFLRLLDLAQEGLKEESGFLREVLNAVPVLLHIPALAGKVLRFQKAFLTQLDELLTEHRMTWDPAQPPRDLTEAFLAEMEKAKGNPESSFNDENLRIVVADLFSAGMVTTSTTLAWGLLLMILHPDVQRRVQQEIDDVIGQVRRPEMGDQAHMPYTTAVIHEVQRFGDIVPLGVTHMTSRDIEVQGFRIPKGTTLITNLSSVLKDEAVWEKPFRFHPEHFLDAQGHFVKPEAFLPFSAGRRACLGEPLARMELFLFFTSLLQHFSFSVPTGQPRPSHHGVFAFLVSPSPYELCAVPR
Cytochrome P450 3A4, sequence (P08684 whole entry): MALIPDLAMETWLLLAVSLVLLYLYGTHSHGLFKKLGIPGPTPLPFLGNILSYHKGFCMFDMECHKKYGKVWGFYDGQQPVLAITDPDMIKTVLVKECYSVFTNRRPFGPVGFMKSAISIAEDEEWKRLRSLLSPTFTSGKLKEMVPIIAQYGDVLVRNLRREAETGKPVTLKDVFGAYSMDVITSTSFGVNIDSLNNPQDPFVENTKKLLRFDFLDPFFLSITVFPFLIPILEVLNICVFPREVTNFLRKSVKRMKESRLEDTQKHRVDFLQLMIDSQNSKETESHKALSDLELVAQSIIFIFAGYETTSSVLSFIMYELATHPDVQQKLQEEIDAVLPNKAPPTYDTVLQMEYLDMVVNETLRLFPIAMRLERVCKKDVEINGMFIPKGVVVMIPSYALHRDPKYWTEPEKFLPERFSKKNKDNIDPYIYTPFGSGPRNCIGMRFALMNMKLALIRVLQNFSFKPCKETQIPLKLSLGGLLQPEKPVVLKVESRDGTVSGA
Cytochrome P450 2C19, sequence (P33261 whole entry): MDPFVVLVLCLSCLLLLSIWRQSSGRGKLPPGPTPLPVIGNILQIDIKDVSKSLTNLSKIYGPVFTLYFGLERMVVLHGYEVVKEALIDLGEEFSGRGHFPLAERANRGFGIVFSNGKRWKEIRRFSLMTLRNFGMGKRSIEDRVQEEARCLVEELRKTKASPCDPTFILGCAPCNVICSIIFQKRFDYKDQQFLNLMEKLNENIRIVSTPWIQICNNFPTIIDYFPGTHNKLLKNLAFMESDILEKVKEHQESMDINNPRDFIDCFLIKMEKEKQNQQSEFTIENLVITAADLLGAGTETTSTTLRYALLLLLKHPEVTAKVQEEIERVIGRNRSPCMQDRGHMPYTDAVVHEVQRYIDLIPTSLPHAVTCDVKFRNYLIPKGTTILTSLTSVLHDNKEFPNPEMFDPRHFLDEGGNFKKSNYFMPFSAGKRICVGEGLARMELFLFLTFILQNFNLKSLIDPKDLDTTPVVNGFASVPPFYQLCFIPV
Cytochrome P450 2C9, sequence (P11712 whole entry): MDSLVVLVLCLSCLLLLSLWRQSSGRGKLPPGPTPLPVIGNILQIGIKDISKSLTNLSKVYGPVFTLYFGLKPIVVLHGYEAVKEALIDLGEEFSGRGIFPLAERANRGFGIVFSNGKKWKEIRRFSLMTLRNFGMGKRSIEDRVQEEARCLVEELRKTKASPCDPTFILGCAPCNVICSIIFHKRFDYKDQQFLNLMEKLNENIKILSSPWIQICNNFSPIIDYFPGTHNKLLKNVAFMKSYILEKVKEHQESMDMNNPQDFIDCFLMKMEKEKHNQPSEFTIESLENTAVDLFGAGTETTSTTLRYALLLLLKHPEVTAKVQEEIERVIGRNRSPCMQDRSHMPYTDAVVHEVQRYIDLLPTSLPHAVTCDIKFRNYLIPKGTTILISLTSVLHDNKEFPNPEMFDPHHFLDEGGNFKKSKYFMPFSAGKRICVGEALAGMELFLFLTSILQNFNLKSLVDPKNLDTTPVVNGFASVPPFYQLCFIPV

Ratio IC50 (Homo sapiens)	IC50 [1]	IC50 [2]	inhibition at 2 µM (CYP1A2)	SMILES	further results
29	0.0069 µM	0.199 µM		COC(=O)Cc1cncc(-c2ccc3cc(OC)ccc3c2)c1	
117	0.013 µM	1.52 µM	58%	COc1ccc2cc(-c3cnccc3N)ccc2c1	inhibition at 2 µM (CYP17): 42%; inhibition at 0.5 µM (CYP19 (aromatase)): 47%; IC50 (Cytochrome P450 2B6): > 50 µM; IC50 (Cytochrome P450 2C9): 49 µM; IC50 (Cytochrome P450 2C19): 45.8 µM; IC50 (Cytochrome P450 2D6): 11.1 µM; IC50 (Cytochrome P450 3A4): 21.1 µM; Cmax [3]: < 1.5 ng/mL; IC50 (Cytochrome P450 1A2): 1.42 µM
73	0.0051 µM	0.373 µM	85%	CCOc1cncc(-c2ccc3cc(OC)ccc3c2)c1	
128	0.0005 µM	0.064 µM	6%	COc1ccc2c(c1)CC(C)C(c1cncc3ccccc13)=C2 (stereo not given)	
143	0.0008 µM	0.114 µM	98%	COc1ccc2cc(-c3cnccc3C)ccc2c1	
103	0.0045 µM	0.461 µM	91%	N#Cc1ccc2c(c1)CCC(c1cccnc1)=C2	
83	0.0012 µM	0.1 µM	18%	COc1cncc(C2=Cc3ccc(OC)cc3CC2C)c1 (stereo not given)	
198	0.0022 µM	0.435 µM	97%	COCc1ccncc1-c1ccc2cc(OC)ccc2c1	
57	0.0042 µM	0.238 µM	91%	COc1cncc(-c2ccc3cc(OC)ccc3c2)c1	inhibition at 2 µM (CYP17): 41%; inhibition at 0.5 µM (CYP19 (aromatase)): 14%; IC50 (Cytochrome P450 2B6): > 25 µM; IC50 (Cytochrome P450 2C9): 1.89 µM; IC50 (Cytochrome P450 2C19): > 25 µM; IC50 (Cytochrome P450 2D6): > 25 µM; IC50 (Cytochrome P450 3A4): 1.91 µM; IC50 (Cytochrome P450 1A2): 0.083 µM
			55%	Cc1nc2c([nH]1)c(=O)n(C)c(=O)n2Cc1ccco1 [FURAFYLLINE]	
272	0.0031 µM	0.843 µM	45%	COc1ccc2cc(-c3cncc4ccccc34)c(C)cc2c1	
32	0.0048 µM	0.151 µM		COc1ccc2cc(-c3cncc(-c4ccccc4)c3)ccc2c1	
19	0.0008 µM	0.015 µM		COC(=O)c1cncc(-c2ccc3cc(OC)ccc3c2)c1	
198	0.0005 µM	0.099 µM	78%	COc1ccc2cc(-c3cncc(C(C)O)c3)ccc2c1 (stereo not given)	
155	0.0002 µM	0.031 µM	83%	COCc1cncc(-c2ccc3cc(OC)ccc3c2)c1	
31	1.22 µM	37.8 µM		COc1ccc2cc(-c3cncc(CC(=O)O)c3)ccc2c1	
442	0.094 µM	41.6 µM		COc1ccc2cc(-c3cncc(C(N)=O)c3)ccc2c1	
121	0.0021 µM	0.255 µM	80%	COc1ccc2cc(-c3cncc(C(C)=O)c3)ccc2c1	inhibition at 2 µM (CYP17): 36%; inhibition at 0.5 µM (CYP19 (aromatase)): < 5%; IC50 (Cytochrome P450 2B6): > 50 µM; IC50 (Cytochrome P450 2C9): > 200 µM; IC50 (Cytochrome P450 2C19): > 200 µM; IC50 (Cytochrome P450 2D6): > 200 µM; IC50 (Cytochrome P450 3A4): 9.07 µM; IC50 (Cytochrome P450 1A2): 0.488 µM
150	0.007 µM	1.05 µM	93%	COc1ccc2cc(-c3cccnc3)c(C)cc2c1	
95	0.094 µM	8.92 µM	93%	COc1ccc2cc(-c3cncc(O)c3)ccc2c1	
87	0.0006 µM	0.052 µM	86%	Cc1ccncc1-c1ccc2cc(C#N)ccc2c1	
68	0.0091 µM	0.614 µM	93%	COc1ccc2cc(-c3cncc(CO)c3)ccc2c1	
			98%	COc1ccc2c(c1)CCC(c1cccnc1)=C2	
79	0.0033 µM		73%	COc1ccc2c(c1)CC(C)C(c1cccnc1)=C2 (stereo not given)	
230	0.0038 µM	0.875 µM	91%	COc1cncc(-c2cc3ccc(OC)cc3cc2C)c1	
80	0.022 µM	1.76 µM	92%	COc1ccc2cc(-c3cnccc3CO)ccc2c1	
50	0.0002 µM	0.01 µM		COc1ccc2cc(-c3cncc(C(C)OC)c3)ccc2c1 (stereo not given)	
